One data set has as its system Sf9 cells. Put plainly: Transfection of Sf9 cells, β-galactosidase reporter (Examples 3, 4). The format is cell-based, Spodoptera frugiperda. The following applies: for Efficiency of detergent added to DOTAP/neutral lipid reagent, in words: transfecting Sf9 cells. As to the method:
Sf21 (Spodoptera frugiperda pupal ovarian cells) cells were maintained in TC-100 medium, and High Five or BTI-TN-5BI-4 (Trichoplusia ni embryonic ovarian cells) cells were maintained in Ex-Cell medium at 27° C. in an atmosphere of 5% CO2 in air. S2 (Drosophila melanogaster embryonic cells) were maintained in Shields and Sang M3 medium supplemented with 5% FCS at 25° C. The cells were seeded in a 6-well plate (35 mm culture dishes) 24 h before the transfection at 70% confluence. Before transfection, the cells were washed once or twice with serum-free medium, and placed in 2 ml serum-free medium per 35-mm dish. The liposomes were diluted in 0.15 ml of serum-free medium. Following a 5 minute incubation at room temperature, two μg of plasmid DNA (containing the luciferase or β-galactosidase reporter genes described below) was added, followed by a 5 minute incubation at room temperature prior to being added to the cells in the culture dish. The cells were incubated under the appropriate conditions. After four hours, the transfection mixture was removed and replaced with 2 ml of regular culture medium. […]
The firefly luciferase and E. coli β-galactosidase reporter genes were used to determine the efficiency of DNA transfer quantitatively. […]
For determination of luciferase activity, cells were lysed by the addition of 200 μl of lysis buffer (0.1% Triton X-100, 0.1M K-phosphate, 1 mM DTT, pH 7.8). Ten μl of the cellular extract were analyzed for luciferase activity, using the Enhanced Luciferase Assay kit (Mirus). For determination of β-galactosidase activity, the cells were lysed by the addition of 200 μl of lysis buffer (0.1% Triton X-100, 0.1M K-phosphate, 1 mM DTT, pH 7.8). β-Galactosidase activity was determined using a chemiluminescent assay (Tropix).
Two μg of the β-galactosidase expression vector pIE1HR5/LacZ were transfected into Sf9 cells using TRANSIT-INSECTA, Reagent C (CELLFECTIN from Life Technologies) and Reagent I (INSECTIN-PLUS from Invitrogen). […] Reporter gene expression was determined after 2 days using a chemiluminescent assay (Tropix). […]

In a further data set the test system is insect cells. Description: Transfection of insect cells with DOTAP-based reagent. As to conditions: insect cell lines grown in vitro (e.g., Sf9, Sf21, High Five, S2). The source says: Addition of detergents increases the efficiency of a transfection reagent. However, the optimal type and amount of detergent vary for different transfection reagents and target cell types. […] In a typical transfection reagent, the DOTAP is mixed with a neutral lipid (e.g., DOPE, cholesterol) to form a liposome. […] Optimal enhancement with DLPE was obtained over a range of 1-10% (weight percentage of total composition of DOTAP, DOPE, and neutral lipid).

For data set [1] the following is noted: background statement on prior art; cited from earlier work.

With `CCCCCCCCCCCC(=O)OC[C@H](COP(=O)([O-])OCC[N+](C)(C)C)OC(=O)CCCCCCCCCCC` [DLPC, dilauroylphosphatidylcholine], in the data set on Sf9 cells, the “Efficiency of detergent added to DOTAP/neutral lipid reagent, in words” value is listed as “more efficient than addition of CHAPS”.

Regarding `CCCCCCCCCCCC(=O)OC[C@H](COP(=O)(O)OCCN)OC(=O)CCCCCCCCCCC` [DLPE, dilauroyl phosphatidylethanolamine], the “Efficiency of detergent added to DOTAP/neutral lipid reagent, in words” value in the data set with Sf9 cells is recorded as “more efficient than addition of CHAPS”. Further, the “Range of DLPE giving optimal enhancement of transfection efficiency” value in the data set on Sf9 cells (weight percentage of total composition of DOTAP, DOPE, and neutral lipid) was 1-10%.

As to `CCCCCCCC/C=C\CCCCCCCC(=O)OCC(C[N+](C)(C)C)OC(=O)CCCCCCC/C=C\CCCCCCCC` (centres unmarked) [DOTAP, 1,2-bis(oleoyloxy)-3-(4′-trimethylammonio)propane], the “Transfection efficiency for insect cells, in words” value with insect cells is “efficient transfection reagent”.

In the case of `CCCCCCCCCCCCCCCCCCN` [Stearylamine], in data set [1], the “cytotoxicity, in words” value is on record as “great cytotoxicity”.

The values are drawn from patent publication US6458382B1, “Nucleic acid transfer complexes” (Mirus Corporation, priority 1999, dated 2002).
